Experimental data from patent US12240857B2 (priority 2017, dated 2025).
Like-named read-outs stand apart in the source and are kept apart here.

Experiments:
Vero cells = details: African green monkey
[1] = system: BDBV mucin-domain-deleted glycoprotein pseudotyped VSV; assay: microbe, parasite or virus in culture; type: cell-based, Bundibugyo ebolavirus; details: Vesicular stomatitis virus, Vero, read-out: EC50 BDBV
[2] = system: EBOV mucin-domain-deleted glycoprotein pseudotyped VSV; assay: microbe, parasite or virus in culture; type: cell-based, Zaire ebolavirus; details: Zaire ebolavirus, Vero, read-out: EC50 EBOV
in vitro = details: African green monkey, CC50

SMILES	% cell viability at 3 μM (Vero cells) [%]	% cell viability at 10 μM (Vero cells) [%]	EC50 ([1]; 24 h) [µM]	EC50 ([2]; 24 h) [µM]	% cell viability at 5 μM (Vero cells) [%]	CC50 (in vitro) [µM]	EC50 [1] [µM]	EC50 [2] [µM]
CC(C)CN1CCOC(CNC(=O)C23CC4CC(C2)CC(c2ccccc2)(C4)C3)C1 (stereo not shown) [Example B2, N-{[4-(2-methylpropyl)morpholin-2-yl]methyl}-3-phenyladamantane-1-carboxamide]	100	97	0.93	0.57				
O=C(N1CCN(c2ccccc2)CC1)C12CC3CC(C1)CC(c1ccccc1)(C3)C2 [Example B3, 1-phenyl-4-[(3-phenyladamantan-1-yl)carbonyl]piperazine]			> 5	0.61	83			
CC(C)(CNC(=O)C12CC3CC(C1)CC(c1ccccc1)(C3)C2)N1CCOCC1 [Example B4, N-[2-methyl-2-(morpholin-4-yl)propyl]-3-phenyladamantane-1-carboxamide]	100	114	2.69	0.69				
COc1ccc(N2CCN(CCCNC(=O)C34CC5CC(C3)CC(c3ccccc3)(C5)C4)CC2)cc1 [Example B6, N-{3-[4-(4-methoxyphenyl)piperazin-1-yl]propyl}-3-phenyl adamantane-1-carboxamide]	75	25	1.6	0.92				
COc1ccc(C(CNC(=O)C23CC4CC(C2)CC(c2ccccc2)(C4)C3)N2CCOCC2)cc1 (stereo not shown) [Example B7, N-[2-(4-methoxyphenyl)-2-(morpholin-4-yl)ethyl]-3-phenyl adamantane-1-carboxamide]	112	95	3.1	3.2				
O=C(NCC(c1cccs1)N1CCOCC1)C12CC3CC(C1)CC(c1ccccc1)(C3)C2 (stereo not shown) [Example B8, N-[2-(morpholin-4-yl)-2-(thiophen-2-yl)ethyl]-3-phenyladamantane-1-carboxamide]	103	90	4.6	3.6				
O=C(NC1CCN(Cc2ccccc2)CC1)C12CC3CC(CC(Cl)(C3)C1)C2 [Example B9, N-(1-benzylpiperidin-4-yl)-3-chloro adamantane-1-carboxamide]	112	104	3.1	3.8				
O=C(NC1CCN(Cc2ccccc2)CC1)C12CC3CC(CC(C3)C1)C2 [Example B15, N-(1-benzylpiperidin-4-yl)adamantane-1-carboxamide]	99	98	3.9	5.9				
Cc1ccc(C23CC4CC(CC(CN5CCCCC5)(C4)C2)C3)cc1 [Example D1]			0.61	1.3		> 10		
COc1ccc(CNCCC23CC4CC(CC(C4)C2)C3)cc1 [Example D4, [2-(adamantan-1-yl)ethyl][(4-methoxyphenyl)methyl]amine]			2.72	2.19		> 10		
CCOCCN1CCN(CC23CC4CC(CC(C4)C2)C3)CC1 [Example D5, 1-(adamantan-1-ylmethyl)-4-(2-ethoxyethyl)piperazine]			1.8	4.6		> 10		
CC1CCN(CC(O)COCCC23CC4CC(CC(C4)C2)C3)CC1 (stereo not shown) [Example D10, 1-[2-(adamantan-1-yl)ethoxy]-3-(4-methylpiperidin-1-yl) propan-2-ol]			0.14	0.32		15.5		
CC1CCCCN1CC(O)COCCC12CC3CC(CC(C3)C1)C2 (stereo not shown) [Example D11, 1-[2-(adamantan-1-yl)ethoxy]-3-(2-methylpiperidin-1-yl)propan-2-ol]			0.19	0.44		7.5		
CCN(CC(O)COCCC12CC3CC(CC(C3)C1)C2)C1CCCCC1 (stereo not shown) [Example D12, N-{3-[2-(adamantan-1-yl)ethoxy]-2-hydroxypropyl}-N-ethylcyclo hexanamine]			0.49	0.61		> 3		
CC(C)(C)NCC(O)COCCC12CC3CC(CC(C3)C1)C2 (stereo not shown) [Example D13, {3-[2-(adamantan-1-yl)ethoxy]-2-hydroxypropyl}(tert-butyl)amine]			0.67	0.63		> 10		
OC(COCCC12CC3CC(CC(C3)C1)C2)CN1CCOCC1 (stereo not shown) [Example D16, 1-[2-(adamantan-1-yl)ethoxy]-3-(morpholin-4-yl)propan-2-ol]			3.2	3.8		> 10		
CC1CCN(C[C@H](O)COc2ccc(C34CC5CC(CC(C5)C3)C4)cc2)CC1 [Example D22, (2S)-1[4-(adamantan-1-yl)phenoxy]-3-(4-methylpiperidin-1-yl)propan-2-ol]			0.085	0.052		8.5		
CC1CCN(C[C@@H](O)COc2ccc(C34CC5CC(CC(C5)C3)C4)cc2)CC1 [Example D23, (2R)-1-[4-(adamantan-1-yl)phenoxy]-3-(4-methylpiperidin-1-yl)propan-2-ol]			0.077	0.06		3.9		

SMILES	% cell viability at 3 μM (Vero cells) [%]	% cell viability at 10 μM (Vero cells) [%]	EC50 ([1]; 24 h) [µM]	EC50 ([2]; 24 h) [µM]	% cell viability at 5 μM (Vero cells) [%]	CC50 (in vitro) [µM]	EC50 [1] [µM]	EC50 [2] [µM]
CCN1CCN(CC(O)COc2ccc(C34CC5CC(CC(C5)C3)C4)cc2)CC1 (stereo not shown) [Example D25, 1-[4-(adamantan-1-yl)phenoxy]-3-(4-ethylpiperazin-1-yl)propan-2-ol]			0.24	0.09		3.1		
CN1CCN(C[C@H](O)COc2ccc(C34CC5CC(CC(C5)C3)C4)cc2)CC1 [Example D27]			0.19	0.13		3.5		
CN1CCN(CC(O)COc2ccc(C34CC5CC(CC(C5)C3)C4)cc2)CC1 (stereo not shown) [Example D28, 1-[4-(adamantan-1-yl)phenoxy]-3-(4-methylpiperazin-1-yl)propan-2-ol]			0.21	0.15		4.2		
NCCOc1ccc(C23CC4CC(CC(C4)C2)C3)cc1 [Example D34, 1-[4-(2-aminoethoxy)phenyl] adamantane]			1.16	0.43		3.7		
Nc1ccc(C23CC4CC(CC(C4)C2)C3)cc1 [Example D36, 4-(adamantan-1-yl)aniline]			6.2	4.2		> 10		
CC12CC3CC(C)(C1)CC(c1ccc(OC[C@@H](O)CN4CCCCC4)cc1)(C3)C2 [Example D39, (2S)-1-[4-(3,5-dimethyladamantan-1-yl)phenoxy]-3-(piperidin-1-yl) propan-2-ol]			0.25	0.12		3.2		
CC1CCN(C[C@H](O)COc2ccc(C34CC5CC(C)(CC(C)(C5)C3)C4)cc2)CC1 [Example D40, (2S)-1-[4-(3,5-dimethyladamantan-1-yl)phenoxy]-3-(4-methylpiperidin-1-yl)propan-2-ol]			0.46	0.19		2.5		
O=C(NCCC12CC3CC(CC(C3)C1)C2)c1ccc(CN2CCOCC2)cc1 [Example D41, N-[2-(adamantan-1-yl)ethyl]-4-(morpholin-4-ylmethyl)benzamide]			9.7	2.3		> 3		
CC(NC(=O)Cn1ccc(C(F)(F)F)n1)C12CC3CC(CC(C3)C1)C2 (stereo not shown) [Example D44, N[1-(adamantan-1-yl)ethyl]-2-[3-(trifluoromethyl)-1H-pyrazol-1-yl] acetamide]			2.7	5.8		> 10		
CC(NC(=O)NCC(C)(C)N1CCOCC1)C12CC3CC(CC(C3)C1)C2 (stereo not shown) [Example D45, 1-[1-(adamantan-1-yl)ethyl]-3-[2-methyl-2-(morpholin-4-yl)propyl]urea]			4.6	6.5		> 10		
CN(C)C1CCCN(C(=O)NCC23CC4CC(CC(C4)C2)C3)C1 (stereo not shown) [Example D46, N-(adamantan-1-ylmethyl)-3-(dimethylamino)piperidine-1-carboxamide]			4.3	6.7		> 10		
CC(NC(=O)Cn1nnc(-c2ccco2)n1)C12CC3CC(CC(C3)C1)C2 (stereo not shown) [Example D47, N-[1-(adamantan-1-yl)ethyl]-2-[5-(furan-2-yl)-2H-1,2,3,4-tetrazol-2-yl]acetamide]			5.4	9.3		> 10		
O=C(NC1CCNCC1)NC12CC3CC(C1)CC(c1ccccc1)(C3)C2 [Example E1, 3-(3-phenyladamantan-1-yl)-1-(piperidin-4-yl)urea]						18.3	0.77	> 1
N[C@H]1CC[C@H](NC(=O)NC23CC4CC(C2)CC(c2ccccc2)(C4)C3)CC1 [Example E2, 1-(4-aminocyclohexyl)-3-(3-phenyladamantan-1-yl)urea]						12.6	0.61	0.87
O=C(NC12CC3CC(C1)CC(c1ccccc1)(C3)C2)C1CCNCC1 [Example E3, N-(3-phenyladamantan-1-yl)piperidine-4-carboxamide]						36.3	0.27	> 1
O=C(CC1CCNCC1)NC12CC3CC(C1)CC(c1ccccc1)(C3)C2 [Example E4, N-(3-phenyladamantan-1-yl)-2-(piperidin-4-yl)acetamide]						23.1	0.79	1.08
N[C@H]1CC[C@H](C(=O)NC23CC4CC(C2)CC(c2ccccc2)(C4)C3)CC1 [Example E5, trans-4-amino-N-(3-phenyladamantan-1-yl)cyclohexane-1-carboxamide]						13.3	0.23	0.68
O=C(NCC12CC3CC(C1)CC(c1ccccc1)(C3)C2)C1CCNCC1 [Example E6, N-[(3-phenyladamantan-1-yl)methyl]piperidine-4-carboxamide]						11.9	0.2	0.71
